Article PMC4557015, “Structure-Activity Relationships of the Bioactive Thiazinoquinone Marine Natural Products Thiaplidiaquinones A and B” (Marine Drugs, 2015)
Like-named read-outs stand apart in the source and are kept apart here.

Key:
[1] = system: Plasmodium falciparum, NF54 strain (chloroquine sensitive), IEF stage; assay: In vitro antimalarial activity, P. falciparum NF54 strain; type: cell-based
Description: (§1) Detailed protocols have been reported elsewhere.

[2] = system: Plasmodium falciparum, FcM29-Cameroon strain (chloroquine-resistant); assay: In vitro antimalarial activity, P. falciparum FcM29-Cameroon strain; type: cell-based; conditions: for IC50: Plasmodium falciparum, read-out: P. falc. IC50; for activity against P. falciparum (in words): FcM29-Cameroon strain
Description: as §1

[3] = biological target: Human farnesyltransferase (Homo sapiens, UniProt P49354+P49356); assay: Anti-farnesyltransferase assay (human); type: biochemical; conditions: average of three assays; read-out: FTase (H) IC50
Description: as §1

[4] = system: human leukemia T cell line Jurkat; design: method as in PMID 15857147; conditions: standard cell viability assay; read-out: cytotoxicity towards Jurkat cells IC50; cited from earlier work
[5] = biological target: Trypanosoma brucei farnesyltransferase (Trypanosoma brucei, UniProt Q57U08+Q580J3); assay: Anti-farnesyltransferase assay (T. brucei); type: biochemical
Description: as §1

Jurkat cells [6] = assay: Intracellular ROS, DHR123 flow cytometry; type: cell-based, human; conditions: top test concentration of 100 μM, 30 min
Experimental: In the present study, the presence of ROS in Jurkat cells was determined using dihydrorhodamine 123 (DHR123), a cell permeable probe that becomes fluorescent when oxidized to rhodamine 123 in the presence of ROS [7]. Once the cells were loaded with DHR123, they were then treated with test compounds at a range of concentrations, and the mean fluorescent intensity determined by flow cytometry.
Cells were resuspended in HBSS at 1 × 10^6 cells/mL and 100 μL cells added to individual wells of a 96-well round bottom plate. DHR123 was added to the wells for a final concentration of 500 nM per well and cells incubated for 5 min to allow uptake of DHR123. Compounds were made up in DMSO to 10 mM for a stock solution. A ten-fold dilution series was made for each stock solution in HBSS from 1 mM to 10 nM and 10 μL of each added to triplicate wells, for final concentrations of 100 μM to 1 nM, along with corresponding DMSO controls. The assay was incubated at 37 °C for 30 min, and the cells were washed and resuspended in FACS buffer (PBS with 0.1% BSA and 0.2% sodium azide). Intracellular ROS was measured by flow cytometry analysis of DHR123 uptake.

Jurkat cells [7] = assay: Jurkat cell cytotoxicity assay, Annexin V-FITC/PI flow cytometry; type: cell-based, human; conditions: for mode of Jurkat cell death (Annexin V-FITC/PI): 100 μM, 24 h treatment, flow cytometry; for concentration at which toxicity towards Jurkat cells is apparent: 24 h
Experimental: In addition, by using propidium iodide (PI) as a probe, from the observation of treated cells having a significant loss of nuclear DNA in combination with ROS production it was concluded that both 1 and 2 were inducing apoptosis. […] For our assessment of the mechanism of cell death, we used the combination of Annexin V-FITC and PI stains to allow us to evaluate the ability of test compounds 1–6 to induce apoptosis or necrosis (or both) in Jurkat cells. After 24 h treatment in the presence of 100 μM of each test compound, cells were analyzed by flow cytometry to identify live (AnV^−/PI^−), apoptosing (AnV^+/PI^−), necrotic (AnV^−/PI^+) and late apoptotic (AnV^+/PI^+) cells.
Cells were resuspended in cRPMI at 1 × 10^6 cells/mL and 100 μL cells added to individual wells of a 96-well round bottom plate. Compounds were made up in DMSO to 10 mM for a stock solution. A ten-fold dilution series was made for each stock solution in cRPMI from 1 mM to 10 nM and 10 μL of each added to triplicate wells, for final concentrations of 100 μM to 1 nM, along with corresponding DMSO controls. The cells plus compounds were then incubated for 24 h at 37 °C. The cells were washed in ice-cold Annexin V binding buffer (200 mL PBS with 10 mM HEPES, 140 mM NaCl and 2.5 mM CaCl2). The cell pellets were labelled with 5 μL of Annexin V-FITC (BD Pharmingen) for 15 min at 4 °C. Cells were washed again with ice-cold Annexin V buffer and labelled with 10 μL of 5 μg/mL PI for 7 min at 4 °C. Cells were washed and resuspended in FACS buffer, and Annexin V/PI staining analysed using flow cytometry. Annexin V positive cells were undergoing apoptosis, while PI positive cells were necrotic. Double positive cells were dead, while double negative cells were live cells.

Jurkat cells [8] = system: Jurkat cells; design: method as in PMID 15857147; conditions: relative to untreated cells; cited from earlier work
MDA-MB-435 = assay: NCI-60 five-dose in vitro cytotoxicity screening, MDA-MB-435; type: cell-based, human; conditions: NCI 5-dose testing
Description: as §1

MALME-3M = assay: NCI-60 five-dose in vitro cytotoxicity screening, MALME-3M; type: cell-based, human; conditions: NCI 5-dose testing
Description: as §1

Pf K1 strain = system: Pf K1 strain; design: method as in PMID 21958335; conditions: read-out: antimalarial activity IC50; cited from earlier work
[9] = average of three assays, read-out: FTase (T. b.) IC50
[10] = FcM29-Cameroon strain (chloroquine-resistant), average of three assays
[11] = NF54 strain (chloroquine sensitive), IEF stage, average of two independent assays, read-out: P. falc. IC50

Sequence of Trypanosoma brucei farnesyltransferase (Q580J3 entry or part of it): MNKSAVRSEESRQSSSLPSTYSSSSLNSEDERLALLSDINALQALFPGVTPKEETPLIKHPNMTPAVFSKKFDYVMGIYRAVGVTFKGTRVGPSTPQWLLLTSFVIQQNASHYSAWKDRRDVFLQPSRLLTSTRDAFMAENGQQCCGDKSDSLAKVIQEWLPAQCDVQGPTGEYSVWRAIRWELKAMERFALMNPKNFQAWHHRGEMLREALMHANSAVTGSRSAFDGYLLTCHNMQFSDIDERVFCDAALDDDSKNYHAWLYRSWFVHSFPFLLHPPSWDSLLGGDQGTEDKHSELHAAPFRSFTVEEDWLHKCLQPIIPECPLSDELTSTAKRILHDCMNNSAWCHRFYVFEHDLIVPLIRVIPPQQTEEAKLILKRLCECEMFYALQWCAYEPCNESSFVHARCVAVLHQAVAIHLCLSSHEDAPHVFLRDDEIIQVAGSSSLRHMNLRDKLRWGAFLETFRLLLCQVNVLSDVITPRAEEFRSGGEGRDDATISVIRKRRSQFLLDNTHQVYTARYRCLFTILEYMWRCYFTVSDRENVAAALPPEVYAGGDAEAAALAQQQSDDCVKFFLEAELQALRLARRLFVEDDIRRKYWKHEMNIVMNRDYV
Sequence of Trypanosoma brucei farnesyltransferase (Q57U08 entry or part of it): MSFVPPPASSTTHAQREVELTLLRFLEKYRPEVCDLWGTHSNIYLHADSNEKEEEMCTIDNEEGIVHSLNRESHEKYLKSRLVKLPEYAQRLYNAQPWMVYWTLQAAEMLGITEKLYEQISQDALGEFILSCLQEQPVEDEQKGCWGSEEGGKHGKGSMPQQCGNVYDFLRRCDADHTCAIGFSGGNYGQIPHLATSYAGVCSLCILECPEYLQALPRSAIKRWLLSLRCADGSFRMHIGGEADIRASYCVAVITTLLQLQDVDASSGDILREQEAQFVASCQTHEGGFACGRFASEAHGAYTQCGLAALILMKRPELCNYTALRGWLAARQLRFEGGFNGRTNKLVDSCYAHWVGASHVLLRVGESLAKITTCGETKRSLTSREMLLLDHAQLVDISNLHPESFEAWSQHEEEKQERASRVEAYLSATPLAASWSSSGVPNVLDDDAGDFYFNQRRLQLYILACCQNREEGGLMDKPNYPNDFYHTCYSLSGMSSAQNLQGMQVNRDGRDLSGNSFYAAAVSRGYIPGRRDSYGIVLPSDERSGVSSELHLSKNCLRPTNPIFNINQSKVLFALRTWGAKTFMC

CCN(CC)CCCC(C)Nc1ccnc2cc(Cl)ccc12 (centres unmarked) [Chloroquine, reference compound]
IC50 ([1]; NF54, read-out: P. falc. IC50): 6.3 nM | IC50 [2]: 450 nM

CC(C)=CCC/C(C)=C/Cc1cc(O)cc2c1OC(/C=C(\C)CCC=C(C)C)C1=C2C(=O)C2=C(C1=O)S(=O)(=O)CCN2 (centres unmarked) [Compound 1, thiaplidiaquinone A]
IC50 [3]: 780 ± 170 nM | IC50 [4]: ~3000 nM | IC50 [5, 9]: 740 ± 200 nM | accumulation of intracellular ROS (DHR123 fluorescence) (Jurkat cells [6]): only modest levels of accumulation of intracellular ROS | mode of Jurkat cell death (Annexin V-FITC/PI) (Jurkat cells [7]): inducing both necrosis (PI^+/AV^−) and apoptosis (PI^−/AV^+) | concentration at which toxicity towards Jurkat cells is apparent (Jurkat cells [7]): ~100 µM | activity against P. falciparum (in words) [2]: inactive | IC50 [2, 10]: > 17000 nM | accumulation of intracellular ROS, % of cells (Jurkat cells [8]): 97%

CC(C)=CCC/C(C)=C/Cc1cc2c(cc1O)C1=C(C(=O)C3=C(NCCS3(=O)=O)C1=O)C(/C=C(\C)CCC=C(C)C)O2 (centres unmarked) [Compound 2, thiaplidiaquinone B]
IC50 [3]: 1220 ± 68 nM | IC50 [4]: ~3000 nM | IC50 [5, 9]: 3040 ± 300 nM | accumulation of intracellular ROS (DHR123 fluorescence) (Jurkat cells [6]): only modest levels of accumulation of intracellular ROS | mode of Jurkat cell death (Annexin V-FITC/PI) (Jurkat cells [7]): cell death almost exclusively via apoptosis | concentration at which toxicity towards Jurkat cells is apparent (Jurkat cells [7]): ~100 µM | activity against P. falciparum (in words) [2]: inactive | IC50 [2, 10]: > 17000 nM | accumulation of intracellular ROS, % of cells (Jurkat cells [8]): 93%

CC(C)=CCC/C(C)=C/Cc1cc(O)cc2c1OC(/C=C(\C)CCC=C(C)C)C1=C2C(=O)C2=C(NCCS2(=O)=O)C1=O (centres unmarked) [Compound 3]
IC50 [3]: 140 ± 1.7 nM | IC50 [5, 9]: 220 ± 34 nM | GI50 (MDA-MB-435; Homo sapiens): 52 nM | LC50 (MDA-MB-435; Homo sapiens): 660 nM | TGI (MDA-MB-435): 180 nM | accumulation of intracellular ROS (DHR123 fluorescence) (Jurkat cells [6]): the most potent generator of intracellular ROS | mode of Jurkat cell death (Annexin V-FITC/PI) (Jurkat cells [7]): cell death by necrosis | concentration at which toxicity towards Jurkat cells is apparent (Jurkat cells [7]): ~100 µM | GI50 (MALME-3M; Homo sapiens): 100 nM | LC50 (MALME-3M; Homo sapiens): 3400 nM | TGI (MALME-3M): 600 nM | IC50 [2, 10]: 4560 ± 760 nM

CC(C)=CCC/C(C)=C/Cc1cc2c(cc1O)C1=C(C(=O)C3=C(C1=O)S(=O)(=O)CCN3)C(/C=C(\C)CCC=C(C)C)O2 (centres unmarked) [Compound 4]
IC50 [3]: 54 ± 5 nM | IC50 [5, 9]: 98 ± 8 nM | mode of Jurkat cell death (Annexin V-FITC/PI) (Jurkat cells [7]): dominantly via apoptosis | concentration at which toxicity towards Jurkat cells is apparent (Jurkat cells [7]): ~100 µM | IC50 [2, 10]: 4390 ± 770 nM

CC(C)=CCC/C(C)=C/Cc1cc(O)cc2c1OC(/C=C(\C)CCC=C(C)C)C1=C2C(=O)C=CC1=O (centres unmarked) [Compound 5]
IC50 [3]: 3700 ± 600 nM | IC50 [5, 9]: 3900 ± 600 nM | mode of Jurkat cell death (Annexin V-FITC/PI) (Jurkat cells [7]): dominated by late stage apoptosis (PI^+/AV^+) | IC50 [1, 11]: 2200 nM

CC(C)=CCC/C(C)=C/Cc1cc2c(cc1O)C1=C(C(=O)C=CC1=O)C(/C=C(\C)CCC=C(C)C)O2 (centres unmarked) [Compound 6]
IC50 [3]: 1640 ± 300 nM | IC50 [5]: 6160 ± 1400 nM | mode of Jurkat cell death (Annexin V-FITC/PI) (Jurkat cells [7]): dominated by late stage apoptosis (PI^+/AV^+) | IC50 [1, 11]: 2300 nM

CSCC[C@H](NC(=O)c1ccc(NC[C@@H](N)CS)cc1-c1ccccc1)C(=O)O [FTI 276, reference compound]
IC50 [5, 9]: 10 ± 2 nM

COC1=CC(=O)C2=C(C1=O)C(/C=C(\C)CCC=C(C)C)Oc1cc(OC)c(O)c(C/C=C(\C)CCC=C(C)C)c12 (centres unmarked) [scabellone B]
IC50 (Pf K1 strain): 4800 nM
